Data on 14 molecules can be found in paper PMC10511702, “Design, molecular modelling and synthesis of novel benzothiazole derivatives as BCL-2 inhibitors” (Scientific Reports, 2023).

Where only a bound is given, the exact number is not on record here.

One data set deals with NCI leukemia cell line. Put plainly: NCI in vitro anti-proliferative screen, leukemia panel as a whole. Format: cell-based, human. To be noted: single dose of 10 µM. The procedure:
(§1) The national cancer institute (NCI) in vitro anticancer screening is a two-stage process, beginning with the evaluation of the selected compounds 13c and 13d against NCI leukemia cell line at a single dose of 10 µM. The human leukemia cell line was obtained and maintained at the NCI. The output from the single dose screen is reported as a mean graph. The detailed assay protocol is discussed in the supporting material.
This assay was performed for compounds 13c and 13d by the Developmental Therapeutics Program (DTP) of the National Cancer Institute (NCI), division of cancer treatment and diagnosis, NIH, Bethesda, Maryland, USA (www.dtp.nci.nih.gov). The operation of this screen utilizes leukemia human tumor cell line[37]. […]
Results for the two compounds were reported as a mean graph of the percent growth of the treated cells when compared to the untreated control cells. The results are expressed as cell growth percent for the tested compounds on each of the used NCI cell line panels. […]
Following drug addition, the plates are incubated for an additional 48 hrs at 37°C, 5 % CO2, 95 % air, and 100 % relative humidity. […] Bound stain is subsequently solubilized with 10 mMtrizma base, and the absorbance is read on an automated plate reader at a wavelength of 515 nm. […]

For another data set, the target named is T1, recombinant BCL-2 (Homo sapiens, UniProt P10415).
T1 construct: purchased BPS Bioscience 50272
Put plainly: In vitro BCL-2 inhibitory activity, TR-FRET assay (BPS Bioscience). Format: binding. The conditions noted are these: for IC50: 5 concentrations 1 nM-10 µM; for inhibition at 10 µM: single dose of 10 µM. On the procedure: The in vitro enzyme inhibition determination for the synthesized compounds was carried out in BPS Bioscience Corporation, San Diego, CA, USA (www.bpsbioscience.com). […] The assay was performed by TR-FRET technology using a recombinant BCL-2 and a peptide- ligand substrate. The TR-FRET signal from the assay is correlated with the amount of Ligand binding to BCL-2. […] All of the binding reactions were conducted at room temperature. […] The reaction mixture incubated for 180 min prior to reading the TR-FRET signal. For the background, ligand was replaced with assay buffer. Fluorescence signals for both the donor and acceptor dyes were measured using a Tecan Infinite M1000 plate reader. TR-FRET was recorded as the ratio of the fluorescence of the acceptor and the donor dyes (acceptor/donor). Binding experiments were performed in duplicate at each concentration. The TR-FRET data were analyzed using the computer software, Graphpad Prism. In the absence of the compound in wells containing BCL-2 ligand, the TR-FRET signal (Ft) in each data set was defined as 100% activity. In wells without peptide ligand, the TR-FRET signal (Fb) in each data set was defined as 0% activity. The percent activity in the presence of each compound was calculated according to the following equation: % activity = [(F − Fb)/ (Ft − Fb)] × 100, where F = the TR-FRET signal in the presence of the compound. The percent inhibition was calculated according to the following equation: % inhibition = 100—% activity. IC50 determination for target compounds against BCL-2 was calculated. […] The IC50 value was determined by the concentration causing a half-maximal percent activity.
On the technique in general: Time-resolved FRET reads energy transfer from a long-lived donor to a nearby acceptor.

The next data set has as its system MOLT-4. Put plainly: NCI in vitro anti-proliferative single dose screen. Format: cell-based, human. To be noted: MOLT-4, single dose of 10 µM. The procedure: as §1
(§2) This assay was performed for compounds 13c and 13d by the Developmental Therapeutics Program (DTP) of the National Cancer Institute (NCI), division of cancer treatment and diagnosis, NIH, Bethesda, Maryland, USA (www.dtp.nci.nih.gov). The operation of this screen utilizes leukemia human tumor cell line[37]. The human tumor cell lines of the cancer screening panel were grown in RPMI 1640 medium containing 5% fetal bovine serum and 2 mM L-glutamine.
(§3) Results for the two compounds were reported as a mean graph of the percent growth of the treated cells when compared to the untreated control cells. The results are expressed as cell growth percent for the tested compounds on each of the used NCI cell line panels.
(§4) The human tumor cell lines of the cancer screening panel were grown in RPMI 1640 medium containing 5% fetal bovine serum and 2 mM L-glutamine. For a typical screening experiment, cells are inoculated into 96 well microtiter plates in 100 µL at plating densities ranging from 5,000 to 40,000 cells/well depending on the doubling time of individual cell lines. After cell inoculation, the microtiter plates are incubated at 37° C, 5 % CO2, 95 % air and 100 % relative humidity for 24 hrs prior to addition of experimental drugs. After 24 hrs, two plates of each cell line are fixed in situ with trichloroacetic acid (TCA), to represent a measurement of the cell population for each cell line at the time of drug addition (Tz). Experimental drugs are solubilized in dimethyl sulfoxide at 400-fold the desired final maximum test concentration and stored frozen prior to use. At the time of drug addition, an aliquot of frozen concentrate is thawed and diluted to twice the desired final maximum test concentration with complete medium containing 50 µg/mL gentamicin. Additional four, 10-fold or ½ log serial dilutions are made to provide a total of five drug concentrations plus control. Aliquots of 100 µl of these different drug dilutions are added to the appropriate microtiter wells already containing 100 µl of medium, resulting in the required final drug concentrations.
(§5) Following drug addition, the plates are incubated for an additional 48 hrs at 37°C, 5 % CO2, 95 % air, and 100 % relative humidity. For adherent cells, the assay is terminated by the addition of cold TCA. Cells are fixed in situ by the gentle addition of 50 µl of cold 50 % (w/v) TCA (final concentration, 10 % TCA) and incubated for 60 minutes at 4°C. The supernatant is discarded, and the plates are washed five times with tap water and air dried. Sulforhodamine B (SRB) solution (100 µl) at 0.4 % (w/v) in 1 % acetic acid is added to each well, and plates are incubated for 10 minutes at room temperature. After staining, unbound dye is removed by washing five times with 1 % acetic acid and the plates are air dried. Bound stain is subsequently solubilized with 10 mMtrizma base, and the absorbance is read on an automated plate reader at a wavelength of 515 nm. For suspension cells, the methodology is the same except that the assay is terminated by fixing settled cells at the bottom of the wells by gently adding 50 µl of 80 % TCA (final concentration, 16 % TCA).
(§6) Using the seven absorbance measurements [time zero, (Tz), control growth, (C), and test growth in the presence of drug at the five concentration levels (Ti)], the percentage growth is calculated at each of the drug concentrations levels. Percentage growth inhibition is calculated as: […]

A further data set concerns K-562. As to the kind of experiment: NCI in vitro anti-proliferative single dose screen. Format: cell-based, human. The conditions noted are these: K-562, single dose of 10 µM. The procedure: as §1, §2, §3, §4, §5, §6
For another data set, the system named is CCRF-CEM. As to the kind of experiment: NCI in vitro anti-proliferative single dose screen. To be noted: single dose of 10 µM. Format: cell-based, human. On the procedure:
as §1, §2, §3, §4, §5, §6

Another data set concerns RPMI-8226. Put plainly: NCI in vitro anti-proliferative single dose screen. Format: cell-based, human. The conditions noted are these: RPMI-8226, single dose of 10 µM. The procedure:
as §1, §2, §3, §4, §5, §6

Another data set relates to SR. As to the kind of experiment: NCI in vitro anti-proliferative single dose screen. Format: cell-based, human. The conditions noted are these: single dose of 10 µM; for Cell growth percent: SR. The procedure:
as §1, §2, §3, §4, §5, §6

The next data set relates to HL-60(TB). As to the kind of experiment: NCI in vitro anti-proliferative single dose screen. Format: cell-based, human. The conditions noted are these: single dose of 10 µM. The procedure:
as §1, §2, §3, §4, §5, §6

For another data set, the system named is BCL-2. The conditions noted are these: cited from earlier work.

T1 sequence (P10415 whole entry): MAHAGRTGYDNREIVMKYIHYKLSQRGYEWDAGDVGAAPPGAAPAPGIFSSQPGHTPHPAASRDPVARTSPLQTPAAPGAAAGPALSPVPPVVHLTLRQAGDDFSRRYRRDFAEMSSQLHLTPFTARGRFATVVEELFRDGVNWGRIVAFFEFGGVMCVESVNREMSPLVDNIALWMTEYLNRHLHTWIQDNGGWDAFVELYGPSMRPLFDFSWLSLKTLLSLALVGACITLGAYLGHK

The molecule `Cc1ccc(COc2ccc(NC(=O)c3ccc4nc(NC(=O)c5ccc(NCCc6ccccc6)c([N+](=O)[O-])c5)sc4c3)cc2)cc1` [13c, N-(4-((4-Methylbenzyl)oxy)phenyl)-2-(3-nitro-4-(phenethylamino)benzamido)benzo-[d]thiazole-6-carboxamide] showed a melting point of 138 to 140 °C. In the data set on NCI leukemia cell line, the “inhibition against the used leukemia cell line (in words)” value is “poor inhibition”. Further, on recombinant BCL-2, the IC50 came to 471 nM and the inhibition at 10 µM was 84%. In addition, in the data set on MOLT-4, the Cell growth percent came out at 94.74%. Further, the Cell growth percent with K-562 amounted to 87.23%. This molecule registered a Cell growth percent in the data set on CCRF-CEM of 93.91%. For the same molecule, the Cell growth percent in the data set on RPMI-8226 is 87.5%. The same molecule gave a Cell growth percent in the data set with SR of 82.5%. For the same molecule, the Cell growth percent with HL-60(TB) is 75.74%.
In turn, `O=C(Nc1ccc(OCc2ccc(C(F)(F)F)cc2)cc1)c1ccc2nc(NC(=O)c3ccc(NCCc4ccccc4)c([N+](=O)[O-])c3)sc2c1` [13d, N-(4-((4-Trifluoromethylbenzyl)oxy)phenyl)-2-(3-nitro-4-(phenethylamino)benzamido)-benzo[d]thiazole-6-carboxamide] came in with a melting point of 218 to 220 °C. Moreover, at recombinant BCL-2, the IC50 is 363 nM. For the same molecule, the Cell growth percent with MOLT-4 is given as 74.37%. The same molecule had a Cell growth percent in the data set on K-562 of 67.92%. The Cell growth percent in the data set with CCRF-CEM was 68.2%. In the data set with RPMI-8226, this molecule showed a Cell growth percent of 69.86%. Moreover, in the data set with SR (Homo sapiens, leukemic SR cell lines, read-out: growth inhibition), the inhibition at 10 µM came to 62.9%. Also, the Cell growth percent in the data set on SR came out at 37.13%. Moreover, the Cell growth percent with HL-60(TB) came out at 96.87%.
Turning to `O=C(Nc1ccc(Oc2ccc(Br)cc2)cc1)c1ccc2nc(NC(=O)c3ccc(NCCc4ccccc4)c([N+](=O)[O-])c3)sc2c1` [14b], the melting point lay in the range of 212 to 214 °C. The inhibition at 10 µM on recombinant BCL-2 turned out to be 47%.
In the same order, the values of `O=C(Nc1ccccc1)Nc1ccc2nc(NS(=O)(=O)c3ccc4ccccc4c3)sc2c1` [17a, N-(6-(3-Phenylureido)benzo[d]thiazol-2-yl)naphthalene-2-sulfonamide] are ≥ 300 °C and 0%.
With `O=C(Nc1cccc(Cl)c1)Nc1ccc2nc(NS(=O)(=O)c3ccc4ccccc4c3)sc2c1` [17b, N-(6-(3-(3-Chlorophenyl)ureido)benzo[d]thiazol-2-yl)naphthalene-2-sulfonamide], the melting point was ≥ 300 °C. Also, the inhibition at 10 µM at recombinant BCL-2 was 7%.
For `O=C(Nc1cccc(Br)c1)Nc1ccc2nc(NS(=O)(=O)c3ccc4ccccc4c3)sc2c1` [17c, N-(6-(3-(3-Bromophenyl)ureido)benzo[d]thiazol-2-yl)naphthalene-2-sulfonamide], in that order: ≥ 300 °C and 10%.
In the same order, the values of `COc1cccc(NC(=O)Nc2ccc3nc(NS(=O)(=O)c4ccc5ccccc5c4)sc3c2)c1` [17d, N-(6-(3-(3-Methoxyphenyl)ureido)benzo[d]thiazol-2-yl)naphthalene-2-sulfonamide] are ≥ 300 °C and 7%.
In the same order, the values of `Cc1cccc(NC(=O)Nc2ccc3nc(NS(=O)(=O)c4ccc5ccccc5c4)sc3c2)c1` [17e, N-(6-(3-(m-Tolyl)ureido)benzo[d]thiazol-2-yl)naphthalene-2-sulfonamide] are ≥ 300 °C and 0%.
`O=C(Nc1ccc(Br)cc1)Nc1ccc2nc(NS(=O)(=O)c3ccc4ccccc4c3)sc2c1` [17f, N-(6-(3-(4-Bromophenyl)ureido)benzo[d]thiazol-2-yl)naphthalene-2-sulfonamide]: the melting point is ≥ 300 °C. Besides, on recombinant BCL-2, the IC50 was determined as 2290 nM and the inhibition at 10 µM is > 60%.
Turning to `O=C(Nc1ccc(Cl)c(C(F)(F)F)c1)Nc1ccc2nc(NS(=O)(=O)c3ccc4ccccc4c3)sc2c1` [17g, N-(6-(3-(4-Chloro-3-(trifluoromethyl)phenyl)ureido)benzo[d]thiazol-2-yl)naphthalene-2-sulfonamide], the melting point is ≥ 300 °C. At recombinant BCL-2, the inhibition at 10 µM came out at 18%.
In the same order, the values of `O=C(Nc1ccc(Cl)c(Cl)c1)Nc1ccc2nc(NS(=O)(=O)c3ccc4ccccc4c3)sc2c1` [17h, N-(6-(3-(3,4-Dichlorophenyl)ureido)benzo[d]thiazol-2-yl)naphthalene-2-sulfonamide] are 290 to 292 °C and 0%.
In the same order, the values of `Cc1cc(Cl)ccc1NC(=O)Nc1ccc2nc(NS(=O)(=O)c3ccc4ccccc4c3)sc2c1` [17i, N-(6-(3-(4-Chloro-2-methylphenyl)ureido)benzo[d]thiazol-2-yl)naphthalene-2-sulfonamide] are 280 to 282 °C and 14%.
Consider `Cc1ccc(NC(=O)Nc2ccc3nc(NS(=O)(=O)c4ccc5ccccc5c4)sc3c2)cc1Cl` [17j, N-(6-(3-(3-Chloro-4-methylphenyl)ureido)benzo[d]thiazol-2-yl)naphthalene-2-sulfonamide], for which the melting point was ≥ 300 °C. Moreover, the inhibition at 10 µM on recombinant BCL-2 was found to be 9%.
Molecule `CCCCc1c(-c2ccc(C(=O)NS(=O)(=O)c3ccc4ccccc4c3)cc2C(=O)N2CCc3ccccc3C2)c(CO)nn1-c1ccc(Oc2cccc(Cl)c2)cc1` [Compound 1] returned a melting point of 42 to 44 °C. Further, the IC50 in the data set with BCL-2 is 6 nM.

As usually defined, the IC50 is the point on the concentration scale where inhibition reaches its midpoint. What is called inhibition is the share of the control response that was lost under treatment. Usually melting point stands for the temperature of the solid-liquid transition.
